24 compounds from patent US11584742B2 (MASARYKOVA UNIVERZITA, priority 2018, dated 2023) can be followed below.

The structures appear in SMILES notation. Where only a bound is given, the exact number is not on record here.

For one experiment, the target named is T1, MRE11 (Homo sapiens, UniProt P49959).
T1 sequence (P49959 1-708): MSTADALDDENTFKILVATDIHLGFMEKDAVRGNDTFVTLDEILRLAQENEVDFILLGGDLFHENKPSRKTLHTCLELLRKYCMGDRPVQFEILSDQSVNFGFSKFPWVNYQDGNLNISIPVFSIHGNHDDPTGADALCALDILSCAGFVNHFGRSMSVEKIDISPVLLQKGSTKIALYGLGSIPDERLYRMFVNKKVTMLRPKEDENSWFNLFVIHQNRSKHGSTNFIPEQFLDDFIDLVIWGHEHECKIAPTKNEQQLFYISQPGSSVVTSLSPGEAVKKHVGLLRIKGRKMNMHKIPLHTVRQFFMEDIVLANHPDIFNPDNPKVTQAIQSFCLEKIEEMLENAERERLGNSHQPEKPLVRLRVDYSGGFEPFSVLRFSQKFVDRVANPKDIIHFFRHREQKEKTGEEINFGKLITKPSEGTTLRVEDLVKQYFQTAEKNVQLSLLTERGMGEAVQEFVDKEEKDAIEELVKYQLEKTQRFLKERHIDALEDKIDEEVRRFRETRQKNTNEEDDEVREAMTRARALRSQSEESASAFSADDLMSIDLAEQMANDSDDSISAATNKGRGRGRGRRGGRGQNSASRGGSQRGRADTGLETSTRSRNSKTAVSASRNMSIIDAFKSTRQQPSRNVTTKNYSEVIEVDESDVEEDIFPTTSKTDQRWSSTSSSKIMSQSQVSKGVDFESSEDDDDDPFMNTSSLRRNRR
Nature of the experiment: HTS nuclease assay (cleavage of CY5/BBQ-quenched 5' overhang DNA substrate). The class given is biochemical. Particulars: in vitro HTS nuclease assay; 18 nM MRE11, 40 nM DNA substrate; analysis at t=4 h. On the procedure: DNA Substrate Preparation
The DNA substrate is prepared by mixing the oligonucleotides listed below in a 1:1 ratio to reach a final concentration of 6 μM in a buffer containing 50 mM Tris pH 7.5, 100 mM NaCl and 8 mM MgCl2.
This substrate is a 5′ overhang, which is a preferred substrate of MRE11. […] The fluorescence increases upon substrate cleavage by MRE11, when separation of the two labels occur.
The conditions of the assay are as follows:
Total reaction volume: 5 μL
DNA substrate concentration in the reaction: 40 nM
Inhibitor concentration range tested: 7 nM-50 μM
Each plate contains a series of high and low signal control wells, where no compound is added:
High signal: MRE11+DNA substrate
Low signal: DNA substrate only
These are used during data evaluation.
Two extra assay controls:
1) To check whether unwinding of DNA by the compounds alone occurs.
The DNA substrate [CY5+BBQ(650)] is mixed with the compounds with no protein present.
The CY5 single stranded oligo is mixed with the compounds with no protein present.
The layout of the plates is created by the in-house software (CZ-Openscreen Prague) and this information is transferred to the robotic HTS station.
The reaction is started by the addition of DNA and the reaction time is counted from that moment, including a 15 min delay. Ten timepoints are measured:
The assay data analysis was performed at t=4 h. This corresponds to the time when the reaction is close to its maximum.
The data analysis was performed using the in-house software to obtain IC50 for each compound.

The subject of another experiment is DR-GFP U2OS cells. Nature of the experiment: HR assay (GFP fluorescence after I-SceI transfection, flow cytometry). Format: cell-based. Particulars: Homo sapiens, inhibitor at 25 μM, 72 hours after transfection. On the procedure:
DR-GFP U2OS cells (Methods in Molecular Biology 2012, 920, 379.) were transfected with 2.5 μg of I-SceI-expressing pCAGGS vector and treated with the inhibitors at 25 μM concentration. 72 hours after the transfection, the cells were trypsinized and resuspended in 3% BSA in PBS. GFP fluorescence detection was carried out using a BD FACSVerse flow cytometer and data analyzed with FlowJo software.
(In general: Flow cytometry measures light scatter and fluorescence of single cells or particles in a stream.)

On to `COc1ccc(-c2csc(NC(=O)/C(C#N)=C/c3ccc(O)c(O)c3)n2)cc1C1CC1` [Preparative Example 198, (E)-2-cyano-N-(4-(3-cyclopropyl-4-methoxyphenyl)thiazol-2-yl)-3-(3,4-dihydroxyphenyl)acrylamide], for which the IC50 – broadly, the midpoint of a concentration-inhibition curve – at MRE11 was less than 2000 nM. The inhibition (as a rule, the relative decrease from the control value, in per cent) at 25 µM in the experiment with DR-GFP U2OS cells was greater than 75%. With `CC(C)(C)c1cc(/C=C(\C#N)C(=O)Nc2nc(-c3ccccc3)cs2)ccc1O` [Preparative Example 235, (E)-3-(3-(tert-butyl)-4-hydroxyphenyl)-2-cyano-N-(4-phenylthiazol-2-yl)acrylamide], the inhibition at 25 µM with DR-GFP U2OS cells was greater than 75%. As to `N#C/C(=C\c1ccc(O)c(O)c1)C(=O)Nc1nc(-c2cccc(Br)c2)cs1` [Preparative Example 169, (E)-N-(4-(3-bromophenyl)thiazol-2-yl)-2-cyano-3-(3,4-dihydroxyphenyl)acrylamide], the half-inhibitory concentration (IC50) at MRE11 was less than 2000 nM. Also, the inhibition at 25 µM in the experiment with DR-GFP U2OS cells was greater than 75%. Compound `N#CC(C(=O)Nc1nc(-c2ccccc2)cs1)=C(c1ccccc1)c1ccc(O)c(O)c1` (mixture of isomers) [Preparative Example 190, (E/Z)-2-cyano-3-(3,4-dihydroxyphenyl)-3-phenyl-N-(4-phenylthiazol-2-yl)acrylamide] yielded an IC50 on MRE11 of less than 2000 nM. The inhibition at 25 µM in the experiment with DR-GFP U2OS cells was greater than 75%. Compound `N#C/C(=C\c1ccc(O)c([N+](=O)[O-])c1)C(=O)Nc1nc(-c2ccccc2)cs1` [Preparative Example 208, (E)-2-cyano-3-(4-hydroxy-3-nitrophenyl)-N-(4-phenylthiazol-2-yl)acrylamide] gave a half-inhibitory concentration (IC50) against MRE11 of 10000 to 90000 nM. In the experiment on DR-GFP U2OS cells, this compound returned an inhibition at 25 µM of 50 to 75%. On to `Cc1ccc(-c2csc(NC(=O)/C(C#N)=C/c3ccc(O)c(O)c3)n2)s1` [Preparative Example 229, (E)-2-cyano-3-(3,4-dihydroxyphenyl)-N-(4-(5-methylthiophen-2-yl)thiazol-2-yl)acrylamide], for which, on MRE11, the concentration for half-maximal inhibition (IC50) was less than 2000 nM. Also, in the experiment with DR-GFP U2OS cells, the inhibition at 25 µM lay within 50 to 75%. For `C#Cc1ccc(-c2csc(NC(=O)/C(C#N)=C/c3ccc(O)c(O)c3)n2)cc1` [Preparative Example 197, (E)-2-cyano-3-(3,4-dihydroxyphenyl)-N-(4-(4-ethynylphenyl)thiazol-2-yl)acrylamide], in that order: less than 2000 nM and greater than 75%. For `CC(C)(C)c1csc(NC(=O)/C(C#N)=C/c2ccc(O)c(O)c2)n1` [Preparative Example 199, (E)-N-(4-(tert-butyl)thiazol-2-yl)-2-cyano-3-(3,4-dihydroxyphenyl)acrylamide], in that order: less than 2000 nM and 50 to 75%. For `Cc1sc(NC(=O)/C(C#N)=C/c2ccc(O)c(O)c2)nc1-c1ccccc1` [Preparative Example 194, (E)-2-cyano-3-(3,4-dihydroxyphenyl)-N-(5-methyl-4-phenylthiazol-2-yl)acrylamide], in that order: less than 2000 nM and 50 to 75%.

In turn, `CC(C)c1cc(/C=C(\C#N)C(=O)Nc2nc(-c3ccccc3)cs2)cc(C(C)C)c1O` [Preparative Example 237, (E)-2-cyano-3-(4-hydroxy-3,5-diisopropylphenyl)-N-(4-phenylthiazol-2-yl)acrylamide] showed an inhibition at 25 µM with DR-GFP U2OS cells greater than 75%. The compound `N#C/C(=C\c1ccc(O)c(O)c1)C(=O)Nc1nc(-c2ccccc2)c(Cl)s1` [Preparative Example 195, (E)-N-(5-chloro-4-phenylthiazol-2-yl)-2-cyano-3-(3,4-dihydroxyphenyl)acrylamide] came in with an IC50 against MRE11 of less than 2000 nM. Moreover, the inhibition at 25 µM in the experiment with DR-GFP U2OS cells was 50 to 75%. For `Cc1cc(C(C)(C)C)cc(C)c1-c1csc(NC(=O)/C(C#N)=C/c2ccc(O)c(O)c2)n1` [Preparative Example 246, (E)-N-(4-(4-(tert-butyl)-2,6-dimethylphenyl)thiazol-2-yl)-2-cyano-3-(3,4-dihydroxyphenyl)acrylamide], in that order: less than 2000 nM and greater than 75%. Taken in the same sequence, the figures for `N#C/C(=C\c1ccc(O)c(-c2ccccc2)c1)C(=O)Nc1nc(-c2ccccc2)cs1` [Preparative Example 211, (E)-2-cyano-3-(6-hydroxy-[1,1′-biphenyl]-3-yl)-N-(4-phenylthiazol-2-yl)acrylamide] were 10000 to 90000 nM and less than 50%. Taken in the same sequence, the figures for `N#C/C(=C\c1ccc(O)c(O)c1)C(=O)Nc1nc(-c2ccccc2)c(-c2cnccn2)s1` [Preparative Example 238, (E)-2-cyano-3-(3,4-dihydroxyphenyl)-N-(4-phenyl-5-(pyrazin-2-yl)thiazol-2-yl)acrylamide] were less than 2000 nM and 50 to 75%. For the compound `Cc1cccnc1-c1csc(NC(=O)/C(C#N)=C/c2ccc(O)c(O)c2)n1` [Preparative Example 239, (E)-2-cyano-3-(3,4-dihydroxyphenyl)-N-(4-(3-methylpyridin-2-yl)thiazol-2-yl)acrylamide], the half-inhibitory concentration (IC50) on MRE11 is less than 2000 nM. In the experiment with DR-GFP U2OS cells, this compound showed an inhibition at 25 µM greater than 75%.

With `N#C/C(=C\c1ccc(O)c(O)c1)C(=O)Nc1nc(-c2ccc(Br)s2)cs1` [Preparative Example 219, (E)-N-(4-(5-bromothiophen-2-yl)thiazol-2-yl)-2-cyano-3-(3,4-dihydroxyphenyl) acrylamide], the IC50 on MRE11 was less than 2000 nM. Also, the inhibition at 25 µM in the experiment on DR-GFP U2OS cells was greater than 75%.

In turn, `N#C/C(=C\c1ccc(O)c(O)c1)C(=O)Nc1nc(C23CC4CC(CC(C4)C2)C3)cs1` [Preparative Example 174, (E)-N-(4-((1S,3s)-adamantan-1-yl)thiazol-2-yl)-2-cyano-3-(3,4-dihydroxyphenyl)acrylamide] showed an IC50 against MRE11 of 2000 to 10000 nM. The same compound displayed an inhibition at 25 µM in the experiment with DR-GFP U2OS cells of 50 to 75%. Take `N#C/C(=C\c1ccc(O)c(O)c1)C(=O)Nc1nc(-c2ccc(-c3ccccc3)cc2)cs1` [Preparative Example 164, (E)-N-(4-([1,1′-biphenyl]-4-yl)thiazol-2-yl)-2-cyano-3-(3,4-dihydroxyphenyl)acrylamide]: at MRE11, the half-maximal inhibitory concentration (IC50) lay within 2000 to 10000 nM. This compound yielded an inhibition at 25 µM in the experiment on DR-GFP U2OS cells greater than 75%. Consider `CC(C)(C)c1cc(/C=C(\C#N)C(=O)Nc2nc(-c3ccc(OC(F)(F)F)cc3)cs2)cc(C(C)(C)C)c1O` [Preparative Example 221], for which the inhibition at 25 µM in the experiment on DR-GFP U2OS cells was less than 50%. On the same count and under the same terms, next, `Cc1cc(/C=C(\C#N)C(=O)Nc2nc(-c3ccccc3)cs2)cc(C(C)(C)C)c1O` [Preparative Example 234, (E)-3-(3-(tert-butyl)-4-hydroxy-5-methylphenyl)-2-cyano-N-(4-phenylthiazol-2-yl)acrylamide]: greater than 75%. Consider `Cc1cc(/C=C(\C#N)C(=O)Nc2nc(-c3ccc(OC(F)(F)F)cc3)cs2)cc(C)c1O` [Preparative Example 177, (E)-2-cyano-3-(3,5-dimethyl-4-hydroxyphenyl)-N-(4-(4-(trifluoromethoxy)phenyl)thiazol-2-yl)acrylamide], for which, in the experiment with DR-GFP U2OS cells, the inhibition at 25 µM was greater than 75%. On the same count and under the same terms, to `N#C/C(=C\c1ccc(O)cc1O)C(=O)Nc1nc(-c2ccccc2)cs1` [Preparative Example 218, (E)-2-cyano-3-(2,4-dihydroxyphenyl)-N-(4-phenylthiazol-2-yl)acrylamide] belongs 50 to 75%; to `CC(C)(C)c1cc(/C=C(\C#N)C(=O)Nc2nc(-c3ccccc3)cs2)cc(C(C)(C)C)n1` [Preparative Example 240, (E)-2-cyano-3-(2,6-di-tert-butylpyridin-4-yl)-N-(4-phenylthiazol-2-yl)acrylamide], greater than 75%; to `Cc1cc(/C=C(\C#N)C(=O)Nc2nc(-c3ccccc3)cs2)ccc1O` [Preparative Example 217, (E)-2-cyano-3-(4-hydroxy-3-methylphenyl)-N-(4-phenylthiazol-2-yl)acrylamide], 50 to 75%.
